Experimental data reported in US11939330B1, “Pyrido[3,4-b]indole-6-carboxylic acid compounds as CK2 inhibitors” (KING FAISAL UNIVERSITY, priority 2023, dated 2024).

What was measured:
PC3 (prostate) = test: In vitro cytotoxic activity (MTT) assay, PC3; format: cell-based; conditions: Homo sapiens, Prostate cell; PC3 (prostate) cells, exposed for 96 hours; read-out: IC50, concentration of compound eliciting a 50% inhibition of cell proliferation
Method: (§1) Compounds 1-12 were screened for their in vitro cytotoxic activity utilizing a 3-(4,5-dimethyl-thiazol-2-yl)-2,5-diphenyltetrazolium bromide (MTT) assay against selected cancer human cell lines consisting of PC3 (prostate), HCT116 (colon), A375 (melanoma), H1299 (lung), MIAPaCa-2 (pancreas), HL60 (leukemia), MCF7 (breast), MDA-MB-231 (breast) (T. Mosmann, J. Immunol. Meth., 1983, 65, 55-63). The cells were cultured at 37° C. in RMPI1640 medium supplemented with 10% fetal bovine serum, 50 IU/mL penicillin, and 50 μg/mL streptomycin in a 5% CO2 incubator. All cells were sub-cultured 3 times/week by trypsinisation. Viable cells were seeded and allowed to adhere for 12 h before a test drug was added in 96-well plates at an initial density of 1.0×10^5 cells/mL. Tumour cell lines were separately exposed to various concentrations of the tested compounds followed by incubation at a temperature of 37° C. during 96 h inside a medium of fresh RMPI 1640. Cells were subsequently incubated at 37° C. using MTT at 0.5 mg/mL during 4 h. After removal of supernatant, formazan crystals were dissolved in isopropanol and the optical density was measured at 570 nm. CX-4945 was used as a positive control.

HCT116 (colon) = test: In vitro cytotoxic activity (MTT) assay, HCT116; format: cell-based; conditions: Homo sapiens, HCT-116; HCT116 (colon) cells, exposed for 96 hours; read-out: IC50, concentration of compound eliciting a 50% inhibition of cell proliferation
Method: as §1

A375 (melanoma) = test: In vitro cytotoxic activity (MTT) assay, A375; format: cell-based; conditions: Homo sapiens, A-375; A375 (melanoma) cells, exposed for 96 hours; read-out: IC50, concentration of compound eliciting a 50% inhibition of cell proliferation
Method: as §1

H1299 (lung) = test: In vitro cytotoxic activity (MTT) assay, H1299; format: cell-based; conditions: Homo sapiens, NCI-H1299; H1299 (lung) cells, exposed for 96 hours; read-out: IC50, concentration of compound eliciting a 50% inhibition of cell proliferation
Method: as §1

MIAPaCa-2 (pancreas) = test: In vitro cytotoxic activity (MTT) assay, MIAPaCa-2; format: cell-based; conditions: Homo sapiens, MIA PaCa-2; MIAPaCa-2 (pancreas) cells, exposed for 96 hours; read-out: IC50, concentration of compound eliciting a 50% inhibition of cell proliferation
Method: as §1

HL60 (leukemia) = test: In vitro cytotoxic activity (MTT) assay, HL60; format: cell-based; conditions: Homo sapiens, HL-60; HL60 (leukemia) cells, exposed for 96 hours; read-out: IC50, concentration of compound eliciting a 50% inhibition of cell proliferation
Method: as §1

MCF7 (breast) = test: In vitro cytotoxic activity (MTT) assay, MCF7; format: cell-based; conditions: Homo sapiens; MCF7 (breast) cells, exposed for 96 hours; read-out: IC50, concentration of compound eliciting a 50% inhibition of cell proliferation
Method: as §1

MDA-MB-231 (breast) = test: In vitro cytotoxic activity (MTT) assay, MDA-MB-231; format: cell-based; conditions: Homo sapiens; MDA-MB-231 (breast) cells, exposed for 96 hours; read-out: IC50, concentration of compound eliciting a 50% inhibition of cell proliferation
Method: as §1

recombinant human CK2 = biological target: T1, recombinant human CK2 (Homo sapiens, UniProt P68400); test: CK2 Kinase Assay (33P-ATP, substrate peptide RRRDDDSDDD); format: biochemical; conditions: final ATP concentration 15 μM, 10 min at 30° C.; read-out: protein kinase CK2 activity IC50
T1 construct: purchased Millipore
T1 sequence (P68400 whole entry): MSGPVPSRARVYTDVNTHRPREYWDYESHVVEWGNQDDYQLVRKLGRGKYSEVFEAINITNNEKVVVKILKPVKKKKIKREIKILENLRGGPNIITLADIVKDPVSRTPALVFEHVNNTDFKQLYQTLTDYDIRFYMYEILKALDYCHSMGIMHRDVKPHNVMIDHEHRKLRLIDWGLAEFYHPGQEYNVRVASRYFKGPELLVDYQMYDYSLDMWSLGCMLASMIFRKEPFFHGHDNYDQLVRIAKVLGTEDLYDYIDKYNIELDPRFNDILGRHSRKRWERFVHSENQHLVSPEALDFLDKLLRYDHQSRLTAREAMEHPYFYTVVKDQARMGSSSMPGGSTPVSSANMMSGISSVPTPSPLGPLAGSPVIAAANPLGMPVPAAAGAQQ
T1 sequence (P67870 whole entry partner): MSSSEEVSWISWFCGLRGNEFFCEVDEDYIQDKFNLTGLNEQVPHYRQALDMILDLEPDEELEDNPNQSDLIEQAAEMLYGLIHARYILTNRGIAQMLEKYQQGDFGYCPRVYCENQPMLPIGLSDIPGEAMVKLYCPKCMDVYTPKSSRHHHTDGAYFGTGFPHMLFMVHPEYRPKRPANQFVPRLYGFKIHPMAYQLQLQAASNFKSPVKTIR
Method: CK2 Kinase Assay was conducted using the protocol as described in Pierre F. et al; J. Med. Chem. 2011, 54, 635-654. The tested compounds in aqueous solution were added at a volume of 10 μL to a reaction mixture comprising 10 μL of assay dilution buffer (ADB; 20 mM MOPS, pH 7.2, 25 mM β-glycerol phosphate, 5 mM EGTA, 1 mM sodium orthovanadate, and 1 mM dithiothreitol), 10 μL of substrate peptide (RRRDDDSDDD, dissolved in ADB at a concentration of 1 mM), 10 μL of recombinant human CK2 (RROP-holoenzyme, 25 ng dissolved in ADB; Millipore). Reactions were initiated by the addition of 10 μL of ATP solution (90% 75 mMMgCl2, 75 μM ATP (final ATP concentration:15 μM) dissolved in ADB; 10% [7-33P] ATP (stock 1 mCi/100 L; 3000 Ci/mmol (Perkin-Elmer) and maintained for 10 min at 30° C. The reactions were quenched with 100 μL of 0.75% phosphoric acid and then transferred to and filtered through a phosphor cellulose filter plate (Millipore). After washing each well five times with 0.75% phosphoric acid, the plate was dried under vacuum for 5 min and, following the addition of 15 μL of scintillation fluid to each well, the residual radioactivity was measured using a Wallac […] counter. The IC50 values were derived from eight concentrations of test inhibitors.

## O=C(O)c1ccc2c(c1)c1ccncc1n2C(=O)c1cccc(Cl)c1 [Compound 7, 9-(3-chlorobenzoyl)-9H-pyrido[3,4-b]indole-6-carboxylic acid]
PC3 (prostate)
  IC50: 1600 nM
HCT116 (colon)
  IC50: 2400 nM
A375 (melanoma)
  IC50: 3900 nM
H1299 (lung)
  IC50: 1500 nM
MIAPaCa-2 (pancreas)
  IC50: 1900 nM
HL60 (leukemia)
  IC50: 1800 nM
MCF7 (breast)
  IC50: 4700 nM
MDA-MB-231 (breast)
  IC50: 3900 nM
Recombinant human CK2
  IC50: 51 nM
